Ki data for 15 compounds are collected here from BindingDB's records for doi:10.1038/sj.bjp.0703341 (Friedrich-Schiller-University Jena, 2000).

Where “and” joins values, the source holds several entries; their conditions need not be identical. Equal values may be shown once.

Assay [1] concerns the target 5-hydroxytryptamine receptor 6 (Rattus norvegicus, UniProt P31388).
Assay [2] has as its target T1, 5-hydroxytryptamine receptor 2C (Sus scrofa, UniProt G7ZKZ7).
T1 sequence (G7ZKZ7 whole entry): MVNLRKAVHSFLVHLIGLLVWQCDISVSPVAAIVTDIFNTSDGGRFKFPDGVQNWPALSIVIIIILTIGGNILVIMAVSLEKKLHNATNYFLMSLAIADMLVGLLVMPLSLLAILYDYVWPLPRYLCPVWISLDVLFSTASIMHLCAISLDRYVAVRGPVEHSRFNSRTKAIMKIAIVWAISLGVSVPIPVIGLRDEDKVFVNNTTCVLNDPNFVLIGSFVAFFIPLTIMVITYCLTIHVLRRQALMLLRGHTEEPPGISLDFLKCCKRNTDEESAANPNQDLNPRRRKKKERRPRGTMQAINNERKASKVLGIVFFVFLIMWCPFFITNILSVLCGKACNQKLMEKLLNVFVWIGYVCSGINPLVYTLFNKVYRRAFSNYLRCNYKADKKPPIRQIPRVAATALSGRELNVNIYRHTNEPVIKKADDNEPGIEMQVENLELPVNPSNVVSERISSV

The target of assay [3] is 5-hydroxytryptamine receptor 7 (Rattus norvegicus, UniProt P32305).
5-hydroxytryptamine receptor 7, sequence (P32305 whole entry): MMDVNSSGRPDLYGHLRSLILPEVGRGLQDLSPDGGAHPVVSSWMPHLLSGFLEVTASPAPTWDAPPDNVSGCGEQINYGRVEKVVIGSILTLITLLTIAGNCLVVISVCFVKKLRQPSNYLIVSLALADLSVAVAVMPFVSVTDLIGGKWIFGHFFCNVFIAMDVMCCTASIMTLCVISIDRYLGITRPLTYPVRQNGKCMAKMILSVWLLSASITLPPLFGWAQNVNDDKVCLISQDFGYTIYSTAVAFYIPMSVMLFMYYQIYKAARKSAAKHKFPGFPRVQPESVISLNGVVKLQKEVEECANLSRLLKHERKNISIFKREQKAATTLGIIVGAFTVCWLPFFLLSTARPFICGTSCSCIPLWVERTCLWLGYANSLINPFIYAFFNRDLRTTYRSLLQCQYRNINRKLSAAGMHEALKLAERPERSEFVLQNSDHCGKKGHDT
Assay [4] deals with 5-hydroxytryptamine receptor 2B (Rattus norvegicus, UniProt P30994).
5-hydroxytryptamine receptor 2B, sequence (P30994 whole entry): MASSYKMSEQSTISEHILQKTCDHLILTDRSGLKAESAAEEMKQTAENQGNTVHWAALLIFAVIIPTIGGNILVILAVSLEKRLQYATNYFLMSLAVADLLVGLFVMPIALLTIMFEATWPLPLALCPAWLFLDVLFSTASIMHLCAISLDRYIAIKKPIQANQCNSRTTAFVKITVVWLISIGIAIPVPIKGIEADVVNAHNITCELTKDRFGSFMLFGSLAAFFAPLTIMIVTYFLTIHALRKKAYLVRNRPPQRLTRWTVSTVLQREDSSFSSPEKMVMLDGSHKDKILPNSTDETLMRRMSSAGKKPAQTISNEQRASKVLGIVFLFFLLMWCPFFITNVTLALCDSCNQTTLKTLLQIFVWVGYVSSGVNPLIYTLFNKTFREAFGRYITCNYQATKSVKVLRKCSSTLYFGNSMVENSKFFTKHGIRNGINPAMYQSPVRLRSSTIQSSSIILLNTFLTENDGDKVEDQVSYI

5-hydroxytryptamine receptor 6, sequence (P31388 whole entry): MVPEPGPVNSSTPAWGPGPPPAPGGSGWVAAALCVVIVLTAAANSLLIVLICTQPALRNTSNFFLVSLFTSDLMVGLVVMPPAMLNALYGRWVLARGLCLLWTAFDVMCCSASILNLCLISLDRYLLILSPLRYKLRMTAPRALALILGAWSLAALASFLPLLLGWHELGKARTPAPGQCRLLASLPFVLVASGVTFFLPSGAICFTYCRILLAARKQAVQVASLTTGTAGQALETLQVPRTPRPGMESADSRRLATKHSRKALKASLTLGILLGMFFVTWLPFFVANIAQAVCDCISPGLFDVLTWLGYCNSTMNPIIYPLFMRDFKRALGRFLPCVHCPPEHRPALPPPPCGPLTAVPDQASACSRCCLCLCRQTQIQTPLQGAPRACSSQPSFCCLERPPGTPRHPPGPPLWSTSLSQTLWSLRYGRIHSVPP

On to `Clc1ccc2c(c1)C(N1CCNCC1)=Nc1ccccc1O2`, for which the inhibition constant (Ki) in assay [1] was determined as 6.31 nM.
On to `Cc1nc2sccn2c(=O)c1CCN1CCC(=C(c2ccc(F)cc2)c2ccc(F)cc2)CC1`, for which the inhibition constant (Ki) in assay [2] was 2.51 nM; in assay [1], 39.8 nM.
With `CN(C)CCC=C1c2ccccc2CCc2ccccc21`, the Ki in assay [1] was determined as 63.1 nM; in assay [3], 126 nM.
With `CC[C@@H](CO)NC(=O)[C@@H]1C=C2c3cccc4c3c(cn4C)C[C@H]2N(C)C1`, the figures for the inhibition constant (Ki) in assay [2] and in assay [1] were 2.51 nM and 398 nM, respectively.
Consider `CN(C)CC/C=C1\c2ccccc2Sc2ccc(Cl)cc21`, for which the Ki is 3.16 nM in assay [1] and 5.01 nM in assay [3].
Regarding `O=C(c1ccc(F)cc1)C1CCN(CCn2c(=O)[nH]c3ccccc3c2=O)CC1` [3-(2-{4-[(4-fluorophenyl)carbonyl]piperidin-1-yl}ethyl)-1,2,3,4-tetrahydroquinazoline-2,4-dione], the Ki in assay [2] is 100 nM; in assay [1], > 10000 nM; in assay [4], 3160 nM.
With `OCCN1CCN(CCCN2c3ccccc3Sc3ccc(Cl)cc32)CC1` [4-[3-(2-chlorophenothiazin-10-yl)propyl]-1-piperazineethanol], the figures for the Ki in assay [1] and in assay [3] were 15.9 nM and 25.1 nM, respectively.
Take `O=C(CCCN1CCC2(CC1)C(=O)NCN2c1ccccc1)c1ccc(F)cc1` [8-[4-(4-fluorophenyl)-4-oxidanylidene-butyl]-1-phenyl-1,3,8-triazaspiro[4.5]decan-4-one]: affinity in assay [2] was put at a Ki of 1260 nM.
In the case of `CN1CCN(C2=Nc3ccccc3Oc3ccc(Cl)cc32)CC1` [13-chloro-10-(4-methylpiperazin-1-yl)-2-oxa-9-azatricyclo[9.4.0.0^{3,8}]pentadeca-1(11),3,5,7,9,12,14-heptaene], the values for the Ki in assay [1] and in assay [3] were 15.9 nM and 39.8 nM, respectively.
In the case of `CC(O)C(C)OC(=O)C1CC2c3cccc4c3c(cn4C(C)C)CC2N(C)C1` (stereo not drawn) [CAS_60634-51-7], the figures for the Ki in assay [2] and in assay [4] were 7.94 nM and 6.31 nM, respectively.
On to `CN1C[C@@H](NS(=O)(=O)N(C)C)C[C@@H]2c3cccc4c3c(cn4C)C[C@H]21` [MESULERGINE], for which the Ki in assay [2] turned out to be 1.58 nM; in assay [1] it was 1580 nM; in assay [3], 6.31 nM.
Turning to `CN1C[C@H](CNC(=O)OCc2ccccc2)C[C@@H]2c3cccc4c3c(cn4C)C[C@H]21` [METERGOLINE], the Ki in assay [2] is 0.63 nM; in assay [1], 31.6 nM.
Consider `CN1CCC(=C2c3ccccc3CCc3sccc32)CC1` [NSC_27400], for which the Ki in assay [2] is 7.94 nM.
Still for that read-out and setting: with `CSc1ccc2c(c1)C(N1CCN(C)CC1)Cc1ccccc1S2` (stereo not drawn) [methanesulfonic acid;1-methyl-4-(3-methylsulfanyl-5,6-dihydrobenzo[b][1]benzothiepin-5-yl)piperazine] the figure was 25.1 nM.
As to `COC(=O)[C@@H]1[C@H]2C[C@H]3c4[nH]c5ccccc5c4CCN3C[C@@H]2CC[C@@H]1O` [yohimbic acid methyl ester], the Ki in assay [2] is 1580 nM and > 10000 nM; in assay [4], 39.8 nM.
